One molecule from article PMC7365253 (Journal of the American Chemical Society, 2020) can be followed below.

The assay deals with Kelch-like ECH-associated protein 1 (KEAP1) (Homo sapiens, UniProt Q14145). The class given is cell-based.

A word on the EC50: it is the midpoint of the concentration-response curve.

Kelch-like ECH-associated protein 1 (KEAP1), sequence (Q14145 whole entry): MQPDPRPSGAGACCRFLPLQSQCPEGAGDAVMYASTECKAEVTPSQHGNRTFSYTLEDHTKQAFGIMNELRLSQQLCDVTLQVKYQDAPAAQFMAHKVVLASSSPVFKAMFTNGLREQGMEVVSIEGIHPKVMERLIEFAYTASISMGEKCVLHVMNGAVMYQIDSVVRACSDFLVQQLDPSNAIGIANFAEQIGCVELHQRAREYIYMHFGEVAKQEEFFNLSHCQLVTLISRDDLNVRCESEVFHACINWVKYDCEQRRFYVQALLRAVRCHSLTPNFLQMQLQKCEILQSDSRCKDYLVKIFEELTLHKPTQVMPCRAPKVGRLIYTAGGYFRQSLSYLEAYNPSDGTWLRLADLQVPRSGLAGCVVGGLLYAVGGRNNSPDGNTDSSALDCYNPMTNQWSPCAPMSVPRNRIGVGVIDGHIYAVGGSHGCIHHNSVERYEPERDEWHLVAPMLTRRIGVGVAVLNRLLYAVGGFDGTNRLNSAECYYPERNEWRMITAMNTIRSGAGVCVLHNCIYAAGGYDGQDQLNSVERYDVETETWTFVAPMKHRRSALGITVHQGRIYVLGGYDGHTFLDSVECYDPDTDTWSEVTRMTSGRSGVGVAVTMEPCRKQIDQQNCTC

Regarding `Cc1cc(C)c(C#N)c(S(C)(=O)=O)n1` [compound 1, 2-methylsulfony-4,6-diemthyl-nicotinonitrile], the EC50 is 1100 nM. That is a single-digit micromolar value.
